“And” between values parts separate entries of the source, which are not always exact repeats. Equal entries are not always repeated. Inconclusive results and toxic doses are left out. No stated cut-off is given here; in the data, active means T/C of 150% or more; inactive means T/C below 125%.
Test system: L1210 leukemia ip in BDF1 mice, survival T/C
Assay: NCI In Vivo Anticancer Drug Screen. Data for tumor model L1210 Leukemia (intraperitoneal) in B6D2F1 (BDF1) mice
Conditions: endpoint: mean survival time, higher = longer survival
How it was run: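 Tumor was transplanted into mice, which were then dosed with test compound or vehicle alone. Survival was recorded for each group, and the treated figure was expressed relative to the control figure.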

[1] = dose: 100.0 mg/kg/injection, schedule: Q04DX002 (ip), vehicle: Klucel (hydroxypropylcellulose) (HPC)
[2] = dose: 200.0 mg/kg/injection, schedule: Q04DX002 (ip), vehicle: Klucel (hydroxypropylcellulose) (HPC)
[3] = dose: 400.0 mg/kg/injection, schedule: Q04DX002 (ip), vehicle: Klucel (hydroxypropylcellulose) (HPC)
[4] = dose: 100.0 mg/kg/injection, schedule: Q01DX001 (ip), vehicle: Klucel (hydroxypropylcellulose) (HPC)
[5] = dose: 100.0 mg/kg/injection, schedule: Q04DX003 (ip), vehicle: Klucel (hydroxypropylcellulose) (HPC)
[6] = dose: 200.0 mg/kg/injection, schedule: Q01DX001 (ip), vehicle: Klucel (hydroxypropylcellulose) (HPC)
[7] = dose: 200.0 mg/kg/injection, schedule: Q04DX003 (ip), vehicle: Klucel (hydroxypropylcellulose) (HPC)
[8] = dose: 400.0 mg/kg/injection, schedule: Q01DX001 (ip), vehicle: Klucel (hydroxypropylcellulose) (HPC)
[9] = dose: 400.0 mg/kg/injection, schedule: Q04DX003 (ip), vehicle: Klucel (hydroxypropylcellulose) (HPC)
[10] = dose: 100.0 mg/kg/injection, schedule: Q04DX002 (ip), vehicle: saline with Tween-80
[11] = dose: 200.0 mg/kg/injection, schedule: Q04DX002 (ip), vehicle: saline with Tween-80

Measured: T/C

C[N+]1(C)C2CC(O)CC1C1OC12 (stereo not given)
inactive: dose: 1.2 mg/kg/injection, schedule: Q01DX001 (ip), vehicle: saline 95 % of control | dose: 2.5 mg/kg/injection, schedule: Q01DX001 (ip), vehicle: saline 97 % of control | dose: 5.0 mg/kg/injection, schedule: Q01DX001 (ip), vehicle: saline 100 % of control

CCOc1ccc(/C=C2\N=C(c3cc(OC)c(OC)c(OC)c3)OC2=O)cc1
inactive: dose: 100.0 mg/kg/injection, schedule: Q01DX009 (ip), vehicle: saline with Tween-80 102 % of control | [1] 96 % of control | dose: 200.0 mg/kg/injection, schedule: Q01DX009 (ip), vehicle: saline with Tween-80 123 % of control | [2] 86 % of control | dose: 400.0 mg/kg/injection, schedule: Q01DX009 (ip), vehicle: saline with Tween-80 108 % of control | [3] 96 % of control

CCOC(=O)C(=Cc1ccccc1OC)C(=O)OCC
inactive: [4] 100 % of control | [5] 94 % of control | [6] 111 % of control | [7] 100 % of control | [8] 111 % of control | [9] 92 % of control

CC1(C)CSCC(C)(C)C(=O)C1=O
inactive: dose: 50.0 mg/kg/injection, schedule: Q04DX002 (ip), vehicle: saline with Tween-80 100 % of control | [10] 109 % of control | [11] 103 % of control

NC1CCCc2ccccc2C1O (stereo not given)
inactive: dose: 100.0 mg/kg/injection, schedule: Q01DX001 (ip), vehicle: saline 102 % of control | dose: 200.0 mg/kg/injection, schedule: Q01DX001 (ip), vehicle: saline 104 % of control

C=CCCCCCCCCC(=O)NCCN1CCOCC1
inactive: dose: 100.0 mg/kg/injection, schedule: Q04DX003 (ip), vehicle: saline with Tween-80 101 % of control

CC(C)=CCOc1ccc2c(c1)OCO2
inactive: [10] 91 % of control | [11] 103 % of control

O=C1c2ccccc2C(=O)N1c1ccc(CBr)cc1
inactive: [4] 98 % of control | dose: 100.0 mg/kg/injection, schedule: Q01DX009 (ip), vehicle: Klucel (hydroxypropylcellulose) (HPC) 92 % of control and 94 % of control | [1] 106 % of control and 89 % of control | [5] 98 % of control | [6] 94 % of control | dose: 200.0 mg/kg/injection, schedule: Q01DX009 (ip), vehicle: Klucel (hydroxypropylcellulose) (HPC) 89 % of control | [2] 97 % of control and 102 % of control | [7] 90 % of control | [8] 89 % of control | [3] 92 % of control and 115 % of control | [9] 102 % of control

O=C(O)c1cccc(F)c1.[Ni]
inactive: dose: 25.0 mg/kg/injection, schedule: Q04DX002 (ip), vehicle: gum acacia 100 % of control | dose: 50.0 mg/kg/injection, schedule: Q04DX002 (ip), vehicle: gum acacia 103 % of control | dose: 100.0 mg/kg/injection, schedule: Q04DX002 (ip), vehicle: gum acacia 117 % of control

CCCCCCCCCCCCCCCCCC[N+](C)(C)Cc1cc(=O)c(O)co1
inactive: dose: 6.25 mg/kg/injection, schedule: Q01DX009 (ip), vehicle: saline 89 % of control | dose: 12.5 mg/kg/injection, schedule: Q01DX009 (ip), vehicle: saline 106 % of control | dose: 25.0 mg/kg/injection, schedule: Q01DX009 (ip), vehicle: saline 99 % of control

— PubChem BioAssay AID248 (DTP/NCI, 2004)
